Key:
Assay type in all cases: functional
Conditions in all cases: at 10 µM
CCRF-CEM = experiment: Growth inhibition of human CCRF-CEM cells after 48 hrs by cell counting analysis
IGROV-1 = experiment: Growth inhibition of human IGROV1 cells after 48 hrs by cell counting analysis
NCI-H23 = experiment: Growth inhibition of human NCI-H23 cells after 48 hrs by cell counting analysis
SW-620 = experiment: Growth inhibition of human SW620 cells after 48 hrs by cell counting analysis
T47D = experiment: Growth inhibition of human T47D cells after 48 hrs by cell counting analysis
RXF 393 = experiment: Growth inhibition of human RXF393 cells after 48 hrs by cell counting analysis
PC-3 = experiment: Growth inhibition of human PC3 cells after 48 hrs by cell counting analysis
[1] = Growth inhibition of human NCI-322M cells after 48 hrs by cell counting analysis
SK-OV-3 = experiment: Growth inhibition of human SKOV3 cells after 48 hrs by cell counting analysis
MDA-MB-468 = experiment: Growth inhibition of human MDA-MB-468 cells after 48 hrs by cell counting analysis
OVCAR-4 = experiment: Growth inhibition of human OVCAR4 cells after 48 hrs by cell counting analysis
MOLT-4 = experiment: Growth inhibition of human MOLT4 cells after 48 hrs by cell counting analysis
UO-31 = experiment: Growth inhibition of human UO31 cells after 48 hrs by cell counting analysis
SF-295 = experiment: Growth inhibition of human SF295 cells after 48 hrs by cell counting analysis
HCC 2998 = experiment: Growth inhibition of human HCC2998 cells after 48 hrs by cell counting analysis
MDA-MB-435 = experiment: Growth inhibition of human MDA-MB-435 cells after 48 hrs by cell counting analysis
U-251 = experiment: Growth inhibition of human U251 cells after 48 hrs by cell counting analysis
HCT-15 = experiment: Growth inhibition of human HCT15 cells after 48 hrs by cell counting analysis
A549 = experiment: Growth inhibition of human A549 cells after 48 hrs by cell counting analysis
UACC-257 = experiment: Growth inhibition of human UACC257 cells after 48 hrs by cell counting analysis
SF-268 = experiment: Growth inhibition of human SF268 cells after 48 hrs by cell counting analysis
ACHN = experiment: Growth inhibition of human ACHN cells after 48 hrs by cell counting analysis
MDA-MB-231 = experiment: Growth inhibition of human MDA-MB-231 cells after 48 hrs by cell counting analysis
K562 = experiment: Growth inhibition of human K562 cells after 48 hrs by cell counting analysis
HOP-62 = experiment: Growth inhibition of human HOP62 cells after 48 hrs by cell counting analysis
SF-539 = experiment: Growth inhibition of human SF539 cells after 48 hrs by cell counting analysis
SK-MEL-2 = experiment: Growth inhibition of human SK-MEL-2 cells after 48 hrs by cell counting analysis
Malme-3M = experiment: Growth inhibition of human MALME-3M cells after 48 hrs by cell counting analysis
HCT-116 = experiment: Growth inhibition of human HCT116 cells after 48 hrs by cell counting analysis
SK-MEL-5 = experiment: Growth inhibition of human SK-MEL-5 cells after 48 hrs by cell counting analysis
KM12 = experiment: Growth inhibition of human KM12 cells after 48 hrs by cell counting analysis
NCI-H226 = experiment: Growth inhibition of human NCI-H226 cells after 48 hrs by cell counting analysis
SNB-19 = experiment: Growth inhibition of human SNB19 cells after 48 hrs by cell counting analysis
SN12C = experiment: Growth inhibition of human SN12C cells after 48 hrs by cell counting analysis
M14 = experiment: Growth inhibition of human M14 cells after 48 hrs by cell counting analysis
HT-29 = experiment: Growth inhibition of human HT-29 cells after 48 hrs by cell counting analysis
OVCAR-5 = experiment: Growth inhibition of human OVCAR5 cells after 48 hrs by cell counting analysis
CAKI-1 = experiment: Growth inhibition of human Caki1 cells after 48 hrs by cell counting analysis
BT-549 = experiment: Growth inhibition of human BT549 cells after 48 hrs by cell counting analysis
RPMI-8226 = experiment: Growth inhibition of human RPMI8226 cells after 48 hrs by cell counting analysis
LOX IMVI = experiment: Growth inhibition of human LOXIMVI cells after 48 hrs by cell counting analysis
SK-MEL-28 = experiment: Growth inhibition of human SK-MEL-28 cells after 48 hrs by cell counting analysis
OVCAR-8 = experiment: Growth inhibition of human OVCAR8 cells after 48 hrs by cell counting analysis
EKVX = experiment: Growth inhibition of human EKVX cells after 48 hrs by cell counting analysis
HOP-92 = experiment: Growth inhibition of human HOP92 cells after 48 hrs by cell counting analysis
TK-10 = experiment: Growth inhibition of human TK10 cells after 48 hrs by cell counting analysis
HL-60 = experiment: Growth inhibition of human HL60 cells after 48 hrs by cell counting analysis
OVCAR-3 = experiment: Growth inhibition of human OVCAR3 cells after 48 hrs by cell counting analysis
MCF7 = experiment: Growth inhibition of human MCF7 cells after 48 hrs by cell counting analysis
NCI-H522 = experiment: Growth inhibition of human NCI-H522 cells after 48 hrs by cell counting analysis
SNB-75 = experiment: Growth inhibition of human SNB75 cells after 48 hrs by cell counting analysis
UACC-62 = experiment: Growth inhibition of human UACC62 cells after 48 hrs by cell counting analysis
SR = experiment: Growth inhibition of human SR cells after 48 hrs by cell counting analysis
[2] = Growth inhibition of human NCI-ADR-RES cells after 48 hrs by cell counting analysis

Cc1ccc(-c2csc(NC(=O)CCN3CCN(c4ccccc4)CC3)n2)cc1
growth inhibition (GI) (CCRF-CEM): <10%
growth inhibition (GI) (IGROV-1): 14.9%
growth inhibition (GI) (NCI-H23): 14.5%
growth inhibition (GI) (SW-620): <10%
growth inhibition (GI) (T47D): <10%
growth inhibition (GI) (RXF 393): <10%
growth inhibition (GI) (PC-3): 16.1%
growth inhibition (GI) [1]: 15.6%
growth inhibition (GI) (SK-OV-3): <10%
growth inhibition (GI) (MDA-MB-468): <10%
growth inhibition (GI) (OVCAR-4): 11.1%
growth inhibition (GI) (MOLT-4): 14.9%
growth inhibition (GI) (UO-31): 41.2%
growth inhibition (GI) (SF-295): <10%
growth inhibition (GI) (HCC 2998): <10%
growth inhibition (GI) (MDA-MB-435): <10%
growth inhibition (GI) (U-251): <10%
growth inhibition (GI) (HCT-15): <10%
growth inhibition (GI) (A549): 23.8%
growth inhibition (GI) (UACC-257): <10%
growth inhibition (GI) (SF-268): <10%
growth inhibition (GI) (ACHN): <10%
growth inhibition (GI) (MDA-MB-231): <10%
growth inhibition (GI) (K562): <10%
growth inhibition (GI) (HOP-62): <10%
growth inhibition (GI) (SF-539): <10%
growth inhibition (GI) (SK-MEL-2): <10%
growth inhibition (GI) (Malme-3M): 12.1%
growth inhibition (GI) (HCT-116): <10%
growth inhibition (GI) (SK-MEL-5): <10%
growth inhibition (GI) (KM12): <10%
growth inhibition (GI) (NCI-H226): <10%
growth inhibition (GI) (SNB-19): <10%
growth inhibition (GI) (SN12C): <10%
growth inhibition (GI) (M14): <10%
growth inhibition (GI) (HT-29): <10%
growth inhibition (GI) (OVCAR-5): <10%
growth inhibition (GI) (CAKI-1): 14.1%
growth inhibition (GI) (BT-549): <10%
growth inhibition (GI) (RPMI-8226): <10%
growth inhibition (GI) (LOX IMVI): <10%
growth inhibition (GI) (SK-MEL-28): <10%
growth inhibition (GI) (OVCAR-8): <10%
growth inhibition (GI) (EKVX): 16.6%
growth inhibition (GI) (HOP-92): 10.2%
growth inhibition (GI) (TK-10): <10%
growth inhibition (GI) (HL-60): <10%
growth inhibition (GI) (OVCAR-3): <10%
growth inhibition (GI) (MCF7): <10%
growth inhibition (GI) (NCI-H522): <10%
growth inhibition (GI) (SNB-75): <10%
growth inhibition (GI) (UACC-62): 16.3%
growth inhibition (GI) (SR): <10%
growth inhibition (GI) [2]: <10%

O=C(CN1CCN(c2ccccc2)CC1)Nc1nc(-c2ccc(Br)cc2)cs1
growth inhibition (GI) (CCRF-CEM): 22.2%
growth inhibition (GI) (IGROV-1): 34.3%
growth inhibition (GI) (NCI-H23): 22.5%
growth inhibition (GI) (SW-620): <10%
growth inhibition (GI) (T47D): 41.8%
growth inhibition (GI) (RXF 393): 13.6%
growth inhibition (GI) (PC-3): 28.5%
growth inhibition (GI) [1]: 20.5%
growth inhibition (GI) (SK-OV-3): <10%
growth inhibition (GI) (MDA-MB-468): 55.6%
growth inhibition (GI) (OVCAR-4): <10%
growth inhibition (GI) (MOLT-4): 47.6%
growth inhibition (GI) (UO-31): 54.6%
growth inhibition (GI) (SF-295): 20.9%
growth inhibition (GI) (HCC 2998): 21%
growth inhibition (GI) (MDA-MB-435): 23.9%
growth inhibition (GI) (U-251): <10%
growth inhibition (GI) (HCT-15): 26.1%
growth inhibition (GI) (A549): 30.8%
growth inhibition (GI) (UACC-257): 13.7%
growth inhibition (GI) (SF-268): 17%
growth inhibition (GI) (ACHN): 15.7%
growth inhibition (GI) (MDA-MB-231): 22.2%
growth inhibition (GI) (K562): 70.7%
growth inhibition (GI) (HOP-62): <10%
growth inhibition (GI) (SF-539): <10%
growth inhibition (GI) (SK-MEL-2): 14.5%
growth inhibition (GI) (Malme-3M): 13.8%
growth inhibition (GI) (HCT-116): 33.1%
growth inhibition (GI) (SK-MEL-5): 39.4%
growth inhibition (GI) (KM12): <10%
growth inhibition (GI) (NCI-H226): 20.2%
growth inhibition (GI) (SNB-19): 23.9%
growth inhibition (GI) (SN12C): 23.7%
growth inhibition (GI) (M14): 15.7%
growth inhibition (GI) (HT-29): 37.7%
growth inhibition (GI) (OVCAR-5): <10%
growth inhibition (GI) (CAKI-1): 33.5%
growth inhibition (GI) (BT-549): 13.6%
growth inhibition (GI) (RPMI-8226): 33.6%
growth inhibition (GI) (LOX IMVI): 11.6%
growth inhibition (GI) (SK-MEL-28): <10%
growth inhibition (GI) (OVCAR-8): 11.9%
growth inhibition (GI) (EKVX): 26.7%
growth inhibition (GI) (HOP-92): <10%
growth inhibition (GI) (TK-10): 28.3%
growth inhibition (GI) (HL-60): 27.1%
growth inhibition (GI) (OVCAR-3): <10%
growth inhibition (GI) (MCF7): 41.2%
growth inhibition (GI) (NCI-H522): 34.5%
growth inhibition (GI) (SNB-75): 17.9%
growth inhibition (GI) (UACC-62): 40.1%
growth inhibition (GI) (SR): <10%
growth inhibition (GI) [2]: 30.9%

Cc1ccc(-c2csc(NC(=O)CN3CCN(c4ccccc4)CC3)n2)cc1
growth inhibition (GI) (CCRF-CEM): 13.4%
growth inhibition (GI) (IGROV-1): 33.8%
growth inhibition (GI) (NCI-H23): 18.9%
growth inhibition (GI) (SW-620): <10%
growth inhibition (GI) (T47D): 20.8%
growth inhibition (GI) (RXF 393): <10%
growth inhibition (GI) (PC-3): 31.1%
growth inhibition (GI) [1]: 21.4%
growth inhibition (GI) (SK-OV-3): <10%
growth inhibition (GI) (MDA-MB-468): 23.1%
growth inhibition (GI) (OVCAR-4): 28.1%
growth inhibition (GI) (MOLT-4): 23.7%
growth inhibition (GI) (UO-31): 48.2%
growth inhibition (GI) (SF-295): 27.3%
growth inhibition (GI) (HCC 2998): 15.2%
growth inhibition (GI) (MDA-MB-435): 17.6%
growth inhibition (GI) (U-251): <10%
growth inhibition (GI) (HCT-15): 10.6%
growth inhibition (GI) (A549): 31.4%
growth inhibition (GI) (UACC-257): <10%
growth inhibition (GI) (SF-268): 13.9%
growth inhibition (GI) (ACHN): <10%
growth inhibition (GI) (MDA-MB-231): <10%
growth inhibition (GI) (K562): <10%
growth inhibition (GI) (HOP-62): <10%
growth inhibition (GI) (SF-539): <10%
growth inhibition (GI) (SK-MEL-2): <10%
growth inhibition (GI) (Malme-3M): <10%
growth inhibition (GI) (HCT-116): <10%
growth inhibition (GI) (SK-MEL-5): 27.6%
growth inhibition (GI) (KM12): <10%
growth inhibition (GI) (NCI-H226): <10%
growth inhibition (GI) (SNB-19): <10%
growth inhibition (GI) (SN12C): 17%
growth inhibition (GI) (M14): <10%
growth inhibition (GI) (HT-29): <10%
growth inhibition (GI) (OVCAR-5): <10%
growth inhibition (GI) (CAKI-1): 24.6%
growth inhibition (GI) (BT-549): <10%
growth inhibition (GI) (RPMI-8226): <10%
growth inhibition (GI) (LOX IMVI): 17.2%
growth inhibition (GI) (SK-MEL-28): <10%
growth inhibition (GI) (OVCAR-8): <10%
growth inhibition (GI) (EKVX): 32.5%
growth inhibition (GI) (HOP-92): <10%
growth inhibition (GI) (TK-10): <10%
growth inhibition (GI) (HL-60): <10%
growth inhibition (GI) (OVCAR-3): <10%
growth inhibition (GI) (MCF7): 20.9%
growth inhibition (GI) (NCI-H522): <10%
growth inhibition (GI) (SNB-75): 12.1%
growth inhibition (GI) (UACC-62): 23.6%
growth inhibition (GI) (SR): <10%
growth inhibition (GI) [2]: 21%

From ChEMBL document CHEMBL2150993, “Substituted thiazoles VII. Synthesis and antitumor activity of certain 2-(substituted amino)-4-phenyl-1,3-thiazole analogs” (2012)
